Data taken from ChEMBL document CHEMBL3769397, “A new GLP-1 analogue with prolonged glucose-lowering activity in vivo via backbone-based modification at the N-terminus” (Bioorg Med Chem, 2016).

Columns and labels:
[1] = Retention time of compound over 30 mins by HPLC analysis; assay type: physicochemical; conditions: 0.5 h
[2] = target: T1, DPP4 (dipeptidyl peptidase 4) (Homo sapiens, UniProt P27487); assay: Drug degradation assessed as recombinant human DPP4-mediated cleavage by measuring compound remaining after 4 hrs by RP-HPLC analysis; assay type: ADME; conditions: read-out: Stability
T1 sequence (P27487 whole entry): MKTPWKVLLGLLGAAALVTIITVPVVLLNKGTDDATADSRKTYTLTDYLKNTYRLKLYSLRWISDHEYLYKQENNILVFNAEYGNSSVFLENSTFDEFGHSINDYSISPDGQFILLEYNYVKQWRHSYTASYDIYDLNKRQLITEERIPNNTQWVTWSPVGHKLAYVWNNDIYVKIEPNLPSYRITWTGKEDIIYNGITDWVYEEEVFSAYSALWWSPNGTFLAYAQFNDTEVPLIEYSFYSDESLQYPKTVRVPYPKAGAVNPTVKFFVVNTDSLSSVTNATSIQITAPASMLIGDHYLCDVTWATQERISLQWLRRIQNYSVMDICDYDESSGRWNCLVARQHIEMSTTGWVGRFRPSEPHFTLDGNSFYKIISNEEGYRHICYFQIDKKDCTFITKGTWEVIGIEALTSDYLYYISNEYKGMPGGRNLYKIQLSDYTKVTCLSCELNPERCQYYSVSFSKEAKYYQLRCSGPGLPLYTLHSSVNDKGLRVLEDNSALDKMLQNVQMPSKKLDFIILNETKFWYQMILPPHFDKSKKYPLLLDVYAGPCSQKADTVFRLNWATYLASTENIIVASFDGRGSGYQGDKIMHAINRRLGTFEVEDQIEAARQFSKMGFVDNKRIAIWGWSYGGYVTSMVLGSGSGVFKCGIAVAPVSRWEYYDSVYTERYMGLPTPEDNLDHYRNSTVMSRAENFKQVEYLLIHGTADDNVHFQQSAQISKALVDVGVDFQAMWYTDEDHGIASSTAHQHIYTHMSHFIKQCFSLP

[3] = target: T1, DPP4 (dipeptidyl peptidase 4); assay: Drug degradation assessed as recombinant human DPP4-mediated cleavage by measuring compound remaining after 1 hr by RP-HPLC analysis; assay type: ADME; conditions: read-out: Stability
[4] = target: T1, DPP4 (dipeptidyl peptidase 4); assay: Drug degradation assessed as recombinant human DPP4-mediated cleavage by measuring compound remaining after 2 hrs by RP-HPLC analysis; assay type: ADME; conditions: read-out: Stability
[5] = target: T1, DPP4 (dipeptidyl peptidase 4); assay: Half life of compound assessed as recombinant human DPP4-mediated cleavage by RP-HPLC analysis; assay type: ADME
[6] = target: T1, DPP4 (dipeptidyl peptidase 4); assay: Drug degradation assessed as recombinant human DPP4-mediated cleavage by measuring compound remaining after 12 hrs by RP-HPLC analysis; assay type: ADME; conditions: read-out: Stability
[7] = target: T1, DPP4 (dipeptidyl peptidase 4); assay: Drug degradation assessed as recombinant human DPP4-mediated cleavage by measuring compound remaining after 8 hrs by RP-HPLC analysis; assay type: ADME; conditions: read-out: Stability

| Retention_time [1] | remaining at 4 h [2] | remaining at 1 h [3] | remaining at 2 h [4] | half-life [5] | remaining at 12 h [6] | remaining at 8 h [7] | SMILES |
| --- | --- | --- | --- | --- | --- | --- | --- |
| 14.612 min | 100% | 100% | 100% | > 96 h | 100% | 100% | CC[C@H](C)[C@H](NC(=O)[C@H](Cc1ccccc1)NC(=O)[C@H](CCC(=O)O)NC(=O)[C@H](CCCCN)NC(=O)[C@H](C)NC(=O)[C@H](C)NC(=O)[C@H](CCC(N)=O)NC(=O)CNC(=O)[C@H](CCC(=O)O)NC(=O)[C@H](CC(C)C)NC(=O)[C@H](Cc1ccc(O)cc1)NC(=O)[C@H](CO)NC(=O)[C@H](CO)NC(=O)[C@@H](NC(=O)[C@H](CC(=O)O)NC(=O)[C@H](CO)NC(=O)[C@@H](NC(=O)[C@H](Cc1ccccc1)NC(=O)[C@@H](NC(=O)CNC(=O)[C@H](CCC(=O)O)N(C)C(=O)[C@H](C)NC(=O)[C@@H](N)Cc1cnc[nH]1)[C@@H](C)O)[C@@H](C)O)C(C)C)C(=O)N[C@@H](C)C(=O)N[C@@H](Cc1c[nH]c2ccccc12)C(=O)N[C@@H](CC(C)C)C(=O)N[C@H](C(=O)N[C@@H](CCCCN)C(=O)NCC(=O)N[C@@H](CCCNC(=N)N)C(N)=O)C(C)C |
| 14.289 min | 32.6% | 75.1% | 55.5% | 2.42 h | 7.5% | 15.1% | CC[C@H](C)[C@H](NC(=O)[C@H](Cc1ccccc1)NC(=O)[C@H](CCC(=O)O)NC(=O)[C@H](CCCCN)NC(=O)[C@H](C)NC(=O)[C@H](C)NC(=O)[C@H](CCC(N)=O)NC(=O)CNC(=O)[C@H](CCC(=O)O)NC(=O)[C@H](CC(C)C)NC(=O)[C@H](Cc1ccc(O)cc1)NC(=O)[C@H](CO)NC(=O)[C@H](CO)NC(=O)[C@@H](NC(=O)[C@H](CC(=O)O)NC(=O)[C@H](CO)NC(=O)[C@@H](NC(=O)[C@H](Cc1ccccc1)NC(=O)[C@@H](NC(=O)CN(C)C(=O)[C@H](CCC(=O)O)NC(=O)[C@H](C)NC(=O)[C@@H](N)Cc1cnc[nH]1)[C@@H](C)O)[C@@H](C)O)C(C)C)C(=O)N[C@@H](C)C(=O)N[C@@H](Cc1c[nH]c2ccccc12)C(=O)N[C@@H](CC(C)C)C(=O)N[C@H](C(=O)N[C@@H](CCCCN)C(=O)NCC(=O)N[C@@H](CCCNC(=N)N)C(N)=O)C(C)C |
| 14.721 min | 33.2% | 69.8% | 55.4% | 2.7 h | 0% | 10.7% | CC[C@H](C)[C@H](NC(=O)[C@H](Cc1ccccc1)NC(=O)[C@H](CCC(=O)O)NC(=O)[C@H](CCCCN)NC(=O)[C@H](C)NC(=O)[C@H](C)NC(=O)[C@H](CCC(N)=O)NC(=O)CNC(=O)[C@H](CCC(=O)O)NC(=O)[C@H](CC(C)C)NC(=O)[C@H](Cc1ccc(O)cc1)NC(=O)[C@H](CO)NC(=O)[C@H](CO)NC(=O)[C@@H](NC(=O)[C@H](CC(=O)O)NC(=O)[C@H](CO)NC(=O)[C@@H](NC(=O)[C@H](Cc1ccccc1)NC(=O)[C@H]([C@@H](C)O)N(C)C(=O)CNC(=O)[C@H](CCC(=O)O)NC(=O)[C@H](C)NC(=O)[C@@H](N)Cc1cnc[nH]1)[C@@H](C)O)C(C)C)C(=O)N[C@@H](C)C(=O)N[C@@H](Cc1c[nH]c2ccccc12)C(=O)N[C@@H](CC(C)C)C(=O)N[C@H](C(=O)N[C@@H](CCCCN)C(=O)NCC(=O)N[C@@H](CCCNC(=N)N)C(N)=O)C(C)C |
| 14.702 min | 4.3% | 42.7% | 17.6% | 0.83 h | 0% | 0% | CC[C@H](C)[C@H](NC(=O)[C@H](Cc1ccccc1)NC(=O)[C@H](CCC(=O)O)NC(=O)[C@H](CCCCN)NC(=O)[C@H](C)NC(=O)[C@H](C)NC(=O)[C@H](CCC(N)=O)NC(=O)CNC(=O)[C@H](CCC(=O)O)NC(=O)[C@H](CC(C)C)NC(=O)[C@H](Cc1ccc(O)cc1)NC(=O)[C@H](CO)NC(=O)[C@H](CO)NC(=O)[C@@H](NC(=O)[C@H](CC(=O)O)NC(=O)[C@H](CO)NC(=O)[C@@H](NC(=O)[C@H](Cc1ccccc1)NC(=O)[C@@H](NC(=O)CNC(=O)[C@H](CCC(=O)O)NC(=O)[C@H](C)N(C)C(=O)[C@@H](N)Cc1cnc[nH]1)[C@@H](C)O)[C@@H](C)O)C(C)C)C(=O)N[C@@H](C)C(=O)N[C@@H](Cc1c[nH]c2ccccc12)C(=O)N[C@@H](CC(C)C)C(=O)N[C@H](C(=O)N[C@@H](CCCCN)C(=O)NCC(=O)N[C@@H](CCCNC(=N)N)C(N)=O)C(C)C |
| 14.127 min | 42.7% | 79.4% | 66.3% | 3.46 h | 6.1% | 17.6% | CC[C@H](C)[C@H](NC(=O)[C@H](Cc1ccccc1)NC(=O)[C@H](CCC(=O)O)NC(=O)[C@H](CCCCN)NC(=O)[C@H](C)NC(=O)[C@H](C)NC(=O)[C@H](CCC(N)=O)NC(=O)CNC(=O)[C@H](CCC(=O)O)NC(=O)[C@H](CC(C)C)NC(=O)[C@H](Cc1ccc(O)cc1)NC(=O)[C@H](CO)NC(=O)[C@H](CO)NC(=O)[C@@H](NC(=O)[C@H](CC(=O)O)NC(=O)[C@H](CO)NC(=O)[C@@H](NC(=O)[C@H](Cc1ccccc1)N(C)C(=O)[C@@H](NC(=O)CNC(=O)[C@H](CCC(=O)O)NC(=O)[C@H](C)NC(=O)[C@@H](N)Cc1cnc[nH]1)[C@@H](C)O)[C@@H](C)O)C(C)C)C(=O)N[C@@H](C)C(=O)N[C@@H](Cc1c[nH]c2ccccc12)C(=O)N[C@@H](CC(C)C)C(=O)N[C@H](C(=O)N[C@@H](CCCCN)C(=O)NCC(=O)N[C@@H](CCCNC(=N)N)C(=O)O)C(C)C |

| SMILES | Retention_time [1] | remaining at 4 h [2] | remaining at 1 h [3] | remaining at 2 h [4] | half-life [5] | remaining at 12 h [6] | remaining at 8 h [7] |
| --- | --- | --- | --- | --- | --- | --- | --- |
| CC[C@H](C)[C@H](NC(=O)[C@H](Cc1ccccc1)NC(=O)[C@H](CCC(=O)O)NC(=O)[C@H](CCCCN)NC(=O)[C@H](C)NC(=O)[C@H](C)NC(=O)[C@H](CCC(N)=O)NC(=O)CNC(=O)[C@H](CCC(=O)O)NC(=O)[C@H](CC(C)C)NC(=O)[C@H](Cc1ccc(O)cc1)NC(=O)[C@H](CO)NC(=O)[C@H](CO)NC(=O)[C@@H](NC(=O)[C@H](CC(=O)O)NC(=O)[C@H](CO)NC(=O)[C@@H](NC(=O)[C@H](Cc1ccccc1)NC(=O)[C@@H](NC(=O)CNC(=O)[C@H](CCC(=O)O)NC(=O)[C@H](C)NC(=O)[C@@H](N)Cc1c[nH]cn1)[C@@H](C)O)[C@@H](C)O)C(C)C)C(=O)N[C@@H](C)C(=O)N[C@@H](Cc1c[nH]c2ccccc12)C(=O)N[C@@H](CC(C)C)C(=O)N[C@H](C(=O)N[C@@H](CCCCN)C(=O)NCC(=O)N[C@@H](CCCNC(=N)N)C(N)=O)C(C)C | 14.611 min | – | – | – | – | – | – |
